# Assay results as given in patent publication US5358936A, “Anionic furanose derivatives, methods of making and using the same” (Gordon; Paul, priority 1991, dated 1994).
# “And” between values parts separate entries of the source, which are not always exact repeats. Equal values may be shown once. “Also recorded” adds a separate entry of the source. Where a name gives a salt, the structure may show the parent alone. Read-outs that look alike come from different tables or passages of the source.
# How the values were obtained:
# [1] = tested on: gastric ulcers; conditions: 50 mg/kg oral gavage 45 minutes before; for Frequency of ulcer-bearing rats: combined groups P<0.01
# Procedure: In this method, a relatively large amount of ethanol is administered to rats by oral gavage (1.0 ml/200 gm), a procedure widely used to produce ordinary gastric ulceration. This injection, however, is given in combination with the intraperitoneal injection of heparin sulfate (10 mg/kg).
# Compound III treatment was 50 mg/kg by oral garage in distilled water as diluent, at 45 minutes before ulcer induction.
# The effects of ethanol alone and ethanol plus Compound III were assessed four hours after ethanol administration. The effects of ethanol plus heparin and ethanol plus heparin plus Compound III were assessed 24 hours after administration of the ulcer inducing combination. Ulcer formation was assessed as discussed in Example 20.
# In this and the following examples, the potassium salt of the drug indicated by a Roman numeral was used; i.e., M is potassium (K^+).
# [2] = tested on: rat hind paws; assay: Paw swelling provoked by zymosan-activated serum or normal serum (Example 23); format: in vivo; conditions: for Paw Swelling, ZAS (MPO study): 45 minutes before ZAS, ZAS alone 34.58 ± 2.45; for Paw Swelling, ZAS (MPO study) / Paw Swelling, ZAS: P < 0.01; for Swelling Change, ZAS / Swelling Change, normal serum (NS): 50 mg/kg oral
# Procedure: For the present studies, zymosan-activated serum (ZAS) was made by incubating reconstituted lyophilized rat serum with 10 mg/ml zymosan A for one hour at 37° C., and then microfiltering to remove the zymosan.
# In the first study, distilled water vehicle or 50 mg/kg Compound III in water were given by oral gavage to 9 control and 9 drug-treated adult male rats, respectively, and 90 minutes later the dorsoventral diameter of the hind feet were determined by Schnelltaster caliper. Sera [0.1 ml ZAS or 0.1 ml normal serum (NS)] were thereafter injected into opposite hind paws of the same rat under ether anesthesia. Below are given the paw swellings that developed at 2 and 3 hours, in response to ZAS and to normal serum, in the absence and presence of drug treatment. Data are reported previously.
# The relationship of neutrophil infiltration to ZAS-induced swelling, and its drug-inhibition, was evaluated in another study. In this study, all procedures employing ZAS and Compound III were carried out as above, except that, Compound III was administered 45 minutes before ZAS, and standardized samples of the swollen footpads were removed and subjected to analysis for myeloperoxidase activity (MPO), according to the method of Lundberg et al., Inflammation, 7:247, (1983). MPO is a neutrophil-specificenzyme, and its assay is the most widely used method of identifying the degree of neutrophil participation in organ pathology.
# [3] = tested on: foot pad; assay: Inflammation provoked by carrageenan injection (Example 25); format: in vivo, mice
# [4] = tested on: bacterial lipopolysaccharide toxicity; assay: Early shock symptoms (diarrhea, malaise) after bacterial endotoxin in older rabbits (Example 28 B); format: in vivo, rabbit; conditions: 10 mg/kg IV; by 48 hours; all eight controls affected; P<0.01
# Procedure: B. Employing the same batch of endotoxin, the same induction methodology was applied to an older, seven month old group of rabbits. […] In this study the treatment group received 10 mg/kg of Compound III, given IV, as above.
# [5] = Acute toxicity in the mouse (Example 29 A); conditions: in vivo
# Source text: Acute intraperitoneal and oral toxicity of Compound III was studied in the mouse. Ten animals per dose were employed.
# [6] = tested on: gastric submucosal thrombi; assay: Inhibition of gastric submucosal thrombi (Example 30); format: in vivo, rat; conditions: 10 mg/kg IV
# Procedure: Thrombosis was induced in rat stomach submucosal blood vessels by the following two-step treatment. First, 1.5 ml of 100 percent ethanol was administered by oral gavage. This produces non-specific injury to tissues and blood vessels of the gastric mucosa. Second, 1.0 mg of adenosine diphosphate (ADP) in 1.0 ml of H2 O, was administered by oral garage 15 minutes after the administration of ethanol. Administration of ADP biases the organ response towards thrombosis by inducing platelet aggregation.
# The pathology generated is typically a disseminated pattern of multiple small thrombi, observed on examination of the gastric mucosa, 1-3 hours after ethanol administration. These thrombi are dark red, dilated, thrombosed submucosal blood vessel segments, each being approximately 1 mm thick and 2 to 6 mm long.
# In these studies, animals were treated with drug or centrol at one hour prior to ethanol administration. Thrombosis was induced as discussed before, and animals were sacrificed at 1.5 hours after ethanol administration. Focal thrombi were then counted. In this study, n=9-10.
# [7] = tested on: platelet aggregation; assay: Mouse tail bleeding time (Example 31 B); format: in vivo
# Procedure: A study of mouse tail bleeding time, which is an in vivo model of platelet aggregation and thrombosis was also conducted. In this widely employed model, bleeding was induced by a standardized transection of the tail tip and subsequent bleeding time was determined after vertical immersion of the tails in isotonic saline at 37° C. for thirty seconds.
# Two compounds of the invention, Compound III and Compound VIII, were assessed as compared with aspirin, in another study of mouse tail bleeding time. In this study, the mice were housed in a standard animal room rather than in a noisy small animal isolator. Also, all three drugs were administered by an intraperitoneal route, rather than a subcutaneous route for Compound III and an intraperitoneal route for aspirin.
# [8] = physchem
# Source text: (§1) Note that the term "apparent pK" in this context is meant to encompass the maximization of buffering that come both from solid-state dissolution and its titration as solute.
# [9] = tested on: mouse blood coagulation; assay: Blood coagulation, in vitro clotting time (Example 31 A); conditions: 10 μg/ml in normal saline
# Procedure: To assess the effect on coagulation, if any, of a compound of the invention, a comparative evaluation was made using mouse blood.
# One ml of freshly drawn mouse blood was added to each tube, and the tube contents were mixed. The clotting time was then noted for each tube, and the results are as shown below:
# [10] = Dissolution and buffering of suspensions, HCl titration (Example 16); conditions: HCl titration
# Source text: as §1
smiles,measurement,setting,value
"CC1(C)O[C@H]2O[C@H]([C@@H](COS(=O)(=O)O)OS(=O)(=O)O)[C@H](OS(=O)(=O)O)[C@H]2O1 [Compound III, 1,2-O-(2-Propylidene)-3,5,6-tri-O-sulfo-α-D-glucofuranose, tripotassium salt]",Frequency of rats with bleeding ulcers,"[1]; ethanol + heparin, 24 hours, P<0.01",0% of Total in Group
same,Frequency of ulcer-bearing rats,"[1]; ethanol + heparin, 24 hours",25% of Total in Group
same,Frequency of rats with bleeding ulcers,"[1]; ethanol, four hours",0% of Total in Group
same,Frequency of ulcer-bearing rats,"[1]; ethanol, four hours",11% of Total in Group
same,"Paw Swelling, ZAS (MPO study)","[2]; 17 mg/kg, n = 6",16.83 ± 2.12 0.1 mm
same,"Paw Swelling, ZAS (MPO study)","[2]; 50 mg/kg, n = 12",15.25 ± 3.99 0.1 mm
same,"Paw Swelling, ZAS","[2]; 2 hours post-ZAS, 50 mg/kg oral gavage 90 minutes before, control 27.22 ± 1.97",10.78 ± 1.94 0.1 mm
same,"Swelling Change, ZAS",[2]; 2 hours,-60%
same,"Swelling Change, normal serum (NS)",[2]; 2 hours,-32%
same,"Paw Swelling, normal serum (NS)","[2]; 2 hours, 50 mg/kg oral gavage, control 11.22 ± 1.28",7.67 ± 1.41 0.1 mm
same,"Paw Swelling, ZAS","[2]; 3 hours post-ZAS, 50 mg/kg oral gavage, control 28.89 ± 2.48",16.11 ± 2.94 0.1 mm
same,"Swelling Change, ZAS",[2]; 3 hours,-44%
same,"Swelling Change, normal serum (NS)",[2]; 3 hours,-17%
same,"Paw Swelling, normal serum (NS)","[2]; 3 hours, 50 mg/kg oral gavage, control 11.44 ± 1.55",9.44 ± 1.28 0.1 mm
same,reduction in swelling,"[3]; subcutaneous, ibuprofen 50 mg/kg, Compound III 30 mg/kg, not significant",26%
same,Swelling Change,"[3]; two hours, SOD 100 units IV, Compound III 50 mg/kg IV + 50 mg/kg IP",-74%
same,Foot-Pad Swelling,"[3]; two hours, SOD 100 units IV, Compound III 50 mg/kg IV + 50 mg/kg IP, control 3.8 ± 0.67",0.82 ± 0.46 0.1 mm
same,"rabbits exhibiting symptoms of early shock (diarrhea, malaise)",[4],only one of eight
same,LD50,"[5]; ip, read-out: LD50, intraperitoneal",2800 mg/kg
same,NOAEL,[5]; iv,3000 mg/kg
same,oral dose producing death,[5]; po,> 4500 mg/kg
same,Drug Effect on thrombi,[6],-62.3%
same,"Mean Thrombi per Stomach, ±SE","[6]; ethanol + ADP, control 10.60 ± 1.42",4.00 ± 1.12 per Stomach
same,"effect on mouse tail bleeding time, in words","[7]; 50 mg/kg and 150 mg/kg subcutaneously, P<0.05",more than doubled bleeding time
same,% Increase in bleeding time,[7]; 100 mg/kg intraperitoneal,276%
same,Mouse Tail Bleeding Time,"[7]; 100 mg/kg intraperitoneal, control 37.0 ± 5.25",139.0 ± 22.51 s
same,potency relative to aspirin in prolonging mouse tail bleeding time / suppressing platelet aggregation,"[7]; first study: aspirin 75 mg/kg IP, Compound III s.c. or oral, second study: all IP 100 mg/kg, tripotassium salt",equipotent with aspirin (75 mg/kg IP); also recorded: about equipotent with aspirin; also recorded: more effective than aspirin; also recorded: more potent than aspirin in the suppression of platelet aggregation
same,pKa,[8],< 0.5
same,"Clotting time, individual mouse","[9]; control 2.0-6.0, tripotassium salt",2.0 min and 1.0 min and 4.0 min
same,Average clotting time,"[9]; control 4.33 ± 1.20, P<0.001",2.0 ± 0.71 min
same,"buffering action, in words",[10],no buffering power
